Measured values taken from patent publication US10717749B2, “Macrocyclic sulfondiimine compounds” (BAYER PHARMA AKTIENGESELLSCHAFT, priority 2015, dated 2020).

Legend:
[1] = molecular target: T1, CDK9/CycT1 (Homo sapiens, UniProt P50750); experiment: CDK9/CycT1 high ATP kinase assay (Method 1b, TR-FRET, 2 mM ATP); format: biochemical; settings: for IC50: Method 1b, 2 mM ATP; for Selectivity high ATP CDK9 over high ATP CDK2: IC50 (high ATP CDK2)/IC50 (high ATP CDK9): Methods 1b and 2b, minimal values
T1 construct: Recombinant full-length His-tagged human CDK9 and CycT1; His; purchased Invitrogen PV4131; host or cells: insect cells
T1 sequence (P50750 whole entry): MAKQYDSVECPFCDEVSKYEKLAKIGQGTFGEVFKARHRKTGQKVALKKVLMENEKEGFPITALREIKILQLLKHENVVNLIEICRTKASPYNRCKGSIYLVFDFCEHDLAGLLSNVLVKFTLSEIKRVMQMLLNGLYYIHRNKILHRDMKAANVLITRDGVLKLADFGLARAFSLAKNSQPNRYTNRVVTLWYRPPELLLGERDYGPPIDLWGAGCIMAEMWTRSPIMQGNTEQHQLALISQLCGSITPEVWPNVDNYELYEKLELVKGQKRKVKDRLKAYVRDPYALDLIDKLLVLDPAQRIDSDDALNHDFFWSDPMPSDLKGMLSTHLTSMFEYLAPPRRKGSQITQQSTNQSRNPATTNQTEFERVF
T1 sequence (O60563 whole entry partner): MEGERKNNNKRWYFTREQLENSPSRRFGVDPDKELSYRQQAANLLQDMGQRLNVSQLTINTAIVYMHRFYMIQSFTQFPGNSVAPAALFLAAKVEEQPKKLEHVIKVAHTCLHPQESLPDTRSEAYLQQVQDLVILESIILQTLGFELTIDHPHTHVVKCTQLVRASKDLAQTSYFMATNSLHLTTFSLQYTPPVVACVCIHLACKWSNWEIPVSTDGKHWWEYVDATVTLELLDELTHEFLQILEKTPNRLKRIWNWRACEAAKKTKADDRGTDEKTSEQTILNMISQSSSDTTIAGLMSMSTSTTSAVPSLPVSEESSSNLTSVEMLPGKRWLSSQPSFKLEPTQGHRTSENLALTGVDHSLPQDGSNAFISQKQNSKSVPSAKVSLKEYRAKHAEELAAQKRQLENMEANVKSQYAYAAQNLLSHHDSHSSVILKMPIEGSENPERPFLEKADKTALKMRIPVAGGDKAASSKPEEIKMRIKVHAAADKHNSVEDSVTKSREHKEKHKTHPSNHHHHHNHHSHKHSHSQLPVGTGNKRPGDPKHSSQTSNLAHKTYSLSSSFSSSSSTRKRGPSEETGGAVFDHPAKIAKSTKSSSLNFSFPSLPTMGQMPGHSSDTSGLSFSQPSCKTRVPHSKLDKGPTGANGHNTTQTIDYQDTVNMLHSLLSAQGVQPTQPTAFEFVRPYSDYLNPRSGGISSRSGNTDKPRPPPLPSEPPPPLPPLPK
Protocol: 1b. CDK9/CycT1 High ATP Kinase Assay
CDK9/CycT1-inhibitory activity of compounds of the present invention at a high ATP concentration after preincubation of enzyme and test compounds was quantified employing the CDK9/CycT1 TR-FRET assay as described in the following paragraphs.
Recombinant full-length His-tagged human CDK9 and CycT1, expressed in insect cells and purified by Ni-NTA affinity chromatography, were purchase from Invitrogen (Cat. No PV4131). As substrate for the kinase reaction biotinylated peptide biotin-Ttds-YISPLKSPYKISEG (C-terminus in amid form) was used which can be purchased e.g. from the company JERINI peptide technologies (Berlin, Germany). For the assay 50 nl of a 100 fold concentrated solution of the test compound in DMSO was pipetted into a black low volume 384 well microtiter plate (Greiner Bio-One, Frickenhausen, Germany), 2 μl of a solution of CDK9/CycT1 in aqueous assay buffer [50 mM Tris/HCl pH 8.0, 10 mM MgCl2, 1.0 mM dithiothreitol, 0.1 mM sodium ortho-vanadate, 0.010% (v/v) Nonidet-P40 (Sigma)] were added and the mixture was incubated for 15 min at 22° C. to allow pre-binding of the test compounds to the enzyme before the start of the kinase reaction. Then the kinase reaction was started by the addition of 3 μl of a solution of adenosine-tri-phosphate (ATP, 3.3 mM=> final conec. in the 5 μl assay volume is 2 mM) and substrate (1.67 μM=> final conc. in the 5 μl assay volume is 1 μM) in assay buffer and the resulting mixture was incubated for a reaction time of 25 min at 22° C. The concentration of CDK9/CycT1 was adjusted depending of the activity of the enzyme lot and was chosen appropriate to have the assay in the linear range, typical concentrations were in the range of 0.5 μg/mL. The reaction was stopped by the addition of 5 μl of a solution of TR-FRET detection reagents (0.2 μM streptavidine-XL665 [Cisbio Bioassays, Codolet, France] and 1 nM anti-RB(pSer807/pSer811)-antibody from BD Pharmingen [#558389] and 1.2 nM LANCE EU-W1024 labeled anti-mouse IgG antibody [Perkin-Elmer, product no. AD0077]) in an aqueous EDTA-solution (100 mM EDTA, 0.2% (w/v) bovine serum albumin in 100 mM HEPES pH 7.5).
(§1) The resulting mixture was incubated 1 h at 22° C. to allow the formation of complex between the phosphorylated biotinylated peptide and the detection reagents. Subsequently the amount of phosphorylated substrate was evaluated by measurement of the resonance energy transfer from the Eu-chelate to the streptavidine-XL. Therefore, the fluorescence emissions at 620 nm and 665 nm after excitation at 350 nm was measured in a HTRF reader, e.g. a Rubystar (BMG Labtechnologies, Offenburg, Germany) or a Viewlux (Perkin-Elmer). The ratio of the emissions at 665 nm and at […] was taken as the measure for the amount of phosphorylated substrate. The data were normalised (enzyme reaction without inhibitor=0% inhibition, all other assay components but no enzyme=100% inhibition).

[2] = molecular target: T2, CDK2/CycE (Homo sapiens, UniProt P24941); experiment: CDK2/CycE kinase assay (Method 2a, TR-FRET, 10 μM ATP); format: biochemical
T2 construct: GST; purchased ProQinase GmbH (Freiburg, Germany); host or cells: insect cells (Sf9)
Text: 2a. CDK2/CycE Kinase Assay:
CDK2/CycE-inhibitory activity of compounds of the present invention was quantified employing the CDK2/CycE TR-FRET assay as described in the following paragraphs:
Recombinant fusion proteins of GST and human CDK2 and of GST and human CycE, expressed in insect cells (Sf9) and purified by Glutathion-Sepharose affinity chromatography, were purchased from ProQinase GmbH (Freiburg, Germany). As substrate for the kinase reaction biotinylated peptide biotin-Ttds-YISPLKSPYKISEG (C-terminus in amid form) was used which can be purchased e.g. from the company JERINI Peptide Technologies (Berlin, Germany).
For the assay 50 nl of a 100 fold concentrated solution of the test compound in DMSO was pipetted into a black low volume 384 well microtiter plate (Greiner Bio-One, Frickenhausen, Germany), 2 μl of a solution of CDK2/CycE in aqueous assay buffer [50 mM Tris/HCl pH 8.0, 10 mM MgCl2, 1.0 mM dithiothreitol, 0.1 mM sodium ortho-vanadate, 0.01% (v/v) Nonidet-P40 (Sigma)] were added and the mixture was incubated for 15 min at 22° C. to allow pre-binding of the test compounds to the enzyme before the start of the kinase reaction. […] The concentration of CDK2/CycE was adjusted depending of the activity of the enzyme lot and was chosen appropriate to have the assay in the linear range, typical concentrations were in the range of 130 ng/mL. The reaction was stopped by the addition of 5 μl of a solution of TR-FRET detection reagents (0.2 μM streptavidine-XL665 [Cisbio Bioassays, Codolet, France] and 1 nM anti-RB(pSer807/pSer811)-antibody from BD Pharmingen [#558389] and 1.2 nM LANCE EU-W1024 labeled anti-mouse IgG antibody [Perkin-Elmer, product no. AD0077]) in an aqueous EDTA-solution (100 mM EDTA, 0.2% (w/v) bovine serum albumin in 100 mM HEPES pH 7.5).
as §1, with “TR-FRET” for “HTRF”

**Q.** Which IC50 [1] does the source give for `CN=S(C)(=N)Cc1cc2cc(c1)OCCCCOc1cc(F)ccc1-c1nc(ncc1F)N2` (racemic) [Example 10, (rac)-9-[(N,S-dimethylsulfonodiimidoyl)methyl]-16,20-difluoro-2,3,4,5-tetrahydro-12H-13,17-(azeno)-11,7-(metheno)-1,6,12,14-benzodioxadiazacyclononadecine] here?
**A.** 3.4 nM

**Q.** What about the “Selectivity high ATP CDK9 over high ATP CDK2: IC50 (high ATP CDK2)/IC50 (high ATP CDK9)” value (“Selectivity high ATP CDK9” for short) [1] of the same compound?
**A.** 485

**Q.** With `CS(=N)(=N)Cc1cc2cc(c1)OCCCCOc1c(ccc(F)c1F)-c1nc(ncc1F)N2` [Example 6, 16,20,21-trifluoro-9-[(S-methylsulfonodiimidoyl)methyl]-2,3,4,5-tetrahydro-12H-13,17-(azeno)-11,7-(metheno)-1,6,12,14-benzodioxadiazacyclononadecine] as the compound, how does the IC50 [1] read?
**A.** 5.9 nM

**Q.** And the “Selectivity high ATP CDK9” value [1]?
**A.** 2118

**Q.** What about the IC50 [2] of the same compound?
**A.** 1430 nM

**Q.** For `CN=S(C)(=N)Cc1cc2nc(c1)OCCCOc1cc(F)ccc1-c1cc(ncc1F)N2` (racemic) [Example 4, (rac)-8-[(N,S-dimethylsulfonodiimidoyl)methyl]-15,19-difluoro-3,4-dihydro-2H,11H-10,6-(azeno)-12,16-(metheno)-1,5,11,13-benzodioxadiazacyclooctadecine], which IC50 [1] is on record?
**A.** 3.7 nM

**Q.** What about the “Selectivity high ATP CDK9” value [1] of the same compound?
**A.** 168

**Q.** What about the IC50 [2] of the same compound?
**A.** 37.3 nM

**Q.** Which IC50 [1] does the source give for `CS(=N)(=N)Cc1cc2nc(c1C#N)OCCCOc1cc(F)ccc1-c1cc(ncc1F)N2` [Example 8, 15,19-difluoro-8-[(S-methylsulfonodiimidoyl)methyl]-3,4-dihydro-2H,11H-10,6-(azeno)-12,16-(metheno)-1,5,11,13-benzodioxadiazacyclooctadecine-7-carbonitrile] here?
**A.** 1.5 nM

**Q.** And the “Selectivity high ATP CDK9” value [1]?
**A.** 252

**Q.** And the IC50 [2]?
**A.** 71.2 nM

**Q.** With `CS(=N)(=N)Cc1cc2nc(c1)OCCCOc1cc(F)ccc1-c1cc(ncc1F)N2` [Example 1, 15,19-difluoro-8-[(S-methylsulfonodiimidoyl)methyl]-3,4-dihydro-2H,11H-10,6-(azeno)-12,16-(metheno)-1,5,11,13-benzodioxadiazacyclooctadecine] as the compound, how does the IC50 [1] read?
**A.** 2 nM

**Q.** What about the “Selectivity high ATP CDK9” value [1] of the same compound?
**A.** 70

**Q.** And the IC50 [2]?
**A.** 16.4 nM

**Q.** `CS(=N)(=N)Cc1cc2cc(c1)OCCCCOc1cc(F)ccc1-c1nc(ncc1F)N2` [Example 5, 16,20-difluoro-9-[(S-methylsulfonodiimidoyl)methyl]-2,3,4,5-tetrahydro-12H-13,17-(azeno)-11,7-(metheno)-1,6,12,14-benzodioxadiazacyclononadecine] was tested. Which IC50 [1] did it give?
**A.** 2.1 nM

**Q.** And the “Selectivity high ATP CDK9” value [1]?
**A.** 590

**Q.** And the IC50 [2]?
**A.** 92.6 nM

**Q.** `CS(=N)(Cc1cc2cc(c1)OCCCCOc1cc(F)ccc1-c1nc(ncc1F)N2)=NC1CC1` (racemic) [Example 9, (rac)-9-[(N-cyclopropyl-S-methylsulfonodiimidoyl)methyl]-16,20-difluoro-2,3,4,5-tetrahydro-12H-13,17-(azeno)-11,7-(metheno)-1,6,12,14-benzodioxadiazacyclononadecine] was tested. Which IC50 [1] did it give?
**A.** 2.3 nM

**Q.** What about the “Selectivity high ATP CDK9” value [1] of the same compound?
**A.** 433

**Q.** What about the IC50 [2] of the same compound?
**A.** 143 nM

**Q.** What does the source list for `CS(=N)(=N)Cc1cc2cc(c1)OCCCCOc1c(F)cccc1-c1nc(ncc1F)N2` [Example 7, 16,21-difluoro-9-[(S-methylsulfonodiimidoyl)methyl]-2,3,4,5-tetrahydro-12H-13,17-(azeno)-11,7-(metheno)-1,6,12,14-benzodioxadiazacyclononadecine]?
**A.** Selectivity high ATP CDK9 over high ATP CDK2: IC50 (high ATP CDK2)/IC50 (high ATP CDK9) [1]: 2132; IC50 [2]: 1170 nM

**Q.** With `CS(=N)(Cc1cc2nc(c1)OCCCOc1cc(F)ccc1-c1cc(ncc1F)N2)=NC#N` (racemic) [Example 3, (rac)-[{[15,19-difluoro-3,4-dihydro-2H,11H-10,6-(azeno)-12,16-(metheno)-1,5,11,13-benzodioxadiazacyclooctadecin-8-yl]methyl}(imino)methyl-λ^6-sulfanylidene]cyanamide] as the compound, how does the IC50 [1] read?
**A.** 1.7 nM

**Q.** What about the “Selectivity high ATP CDK9” value [1] of the same compound?
**A.** 36.7

**Q.** And the IC50 [2]?
**A.** 6 nM

**Q.** Which IC50 [1] does the source give for `CS(=N)(Cc1cc2nc(c1)OCCCOc1cc(F)ccc1-c1cc(ncc1F)N2)=NCCCO` (racemic) [Example 2, (rac)-3-(2-{[15,19-difluoro-3,4-dihydro-2H,11H-10,6-(azeno)-12,16-(metheno)-1,5,11,13-benzodioxadiazacyclooctadecin-8-yl]methyl}-2-methyl-2λ^6-diazathia-1,2-dien-1-yl)propan-1-ol] here?
**A.** 2 nM

**Q.** What about the “Selectivity high ATP CDK9” value [1] of the same compound?
**A.** 123

**Q.** What about the IC50 [2] of the same compound?
**A.** 22.5 nM
